According to US10766928B2, “Targeted conformationally-constrained kinked endosomal disrupting peptides” (priority 2012, dated 2020):
≈ marks a conversion by molar mass, not a printed value. Like-named read-outs stand apart in the source and are kept apart here. Non-standard residues stand in square brackets, D forms with d. Residues, ends and D or L forms follow the SMILES beside them. *: point of attachment. Pentanoyl(5-NH-cholesteryl) = CC(C)CCC[C@@H](C)[C@H]1CC[C@H]2[C@@H]3CC=C4C[C@@H](NCCCCC(=O)*)CC[C@]4(C)[C@H]3CC[C@]12C; Cholesteryloxycarbonyl = CC(C)CCC[C@@H](C)[C@H]1CC[C@H]2[C@@H]3CC=C4C[C@@H](OC(=O)*)CC[C@]4(C)[C@H]3CC[C@]12C; PEG3 = NCCOCCOCCOCCC(=O)O; Aib = CC(C)(N)C(=O)O; Ahx = NCCCCCC(=O)O; βAla = NCCC(=O)O

Key:
[1] = Thermodynamic solubility in PBS (pH 7.4); assay type: physicochemical; conditions: phosphate buffered saline, pH 7.4, Table 3; PBS pH 7.4, 24 h at 22° C.; read-out: Solubility
From the text: Values in parentheses represent 95% confidence intervals. N.D., not determined.
Measurements represent duplicate or more replicates, with active peptides subjected to multiple replicates. ND: not determined. The peptide was non-toxic and soluble in cell culture medium at this concentration.

[2] = test system: endosomes of Jurkat lymphocytes; experiment: Endosome disruption in Jurkat lymphocytes: release of carboxyfluorescein from disulfide probe Compound 2, flow cytometry; conditions: for Efficacy (% of max. 1): % change in cellular fluorescence relative to maximal response of Compound 1 (100%); for Efficacy (% of max. 1) / Efficacy (% of 1): Jurkat; for Efficacy (% of 1): % of the effect of compound 1, calculated span of dose-response curve, ± standard deviation
Experimental: The effects of the compounds of the invention on human Juikat leukemia cells were evaluated using flow cytometry-based assays of potency, efficacy, and toxicity. […] Analysis of flow cytometry data by non-linear regression was used to determine IC50 values for potency with the efficacy expressed as a percentage. […] Dose-dependent effects on cellular viability after 48 h at 37° C. in culture were also measured by flow cytometry.
The # represents the compound number in accordance with Tables A, B, and C. Concentrations of compound stock solutions were determined by absorbance measurements at 280 nm. Efficacy was determined as % change in cellular fluorescence relative to the maximal response of Compound 1, defined as 100%. Potencies and efficacies in Jurkat lymphocytes were measured by flow cytometry after treatment of cells with the compounds listed and the fluorescent probe Compound 2 (2.5 μM) for 14 hours. Toxicity to this cell line was determined by flow cytometry analysis of light scattering and counterstaining with PI after treatment for 48 h at 37° C. in culture. […] N.D., not determined.
Cells were treated with fluorescent molecular probe Compound 2 (2.5 μM) and endosome disruptors for 14 hours at 37° C. Enhanced cellular fluorescence resulting from release of the pH-sensitive fluorophore Compound 3 into the cytoplasm was quantified by flow cytometry.
Natural amino acids are represented by single letter codes. Codes for non-standard elements are as follows: Ch1: (3β-Cholest-5-en-3-yl-ammonio)pentanoyl; Ch2: (Cholester-3-yl)oxy-βAla-βAla; X: ε-Ahx; U: Aib; PB: Pacific Blue fluorophore. O: 3-(2-(2-(2-aminoethoxy)ethoxy)ethoxy)propanyl.

[3] = read-out: Potency, Table 2, EC50 ± standard deviation, Jurkat lymphocytes, disulfide-linked fluorescent probe (2.5 μM), 14 h

| Molecule | solubility thermodynamic at 24 h [1] [µM] | Efficacy (% of max. 1) ([2]; Table 1, 14 hours) | EC50 [2, 3] [µM] | EC50 ([2]; 14 h) [µM] | Efficacy (% of 1) ([2]; Table 2, 14 h) [%] | further results |
| --- | --- | --- | --- | --- | --- | --- |
| CC(C)[C@H](NC(=O)[C@@H](NC(=O)[C@@H]1CCCN1C(=O)[C@@H]1CCCN1C(=O)[C@H](Cc1c[nH]c2ccccc12)NC(=O)[C@H](C)NC(=O)[C@H](C)NC(=O)[C@H](Cc1c[nH]c2ccccc12)NC(=O)[C@H](Cc1c[nH]c2ccccc12)NC(=O)C(C)(C)NC(=O)C(C)(C)NC(=O)C(C)(C)NC(=O)C(C)(C)N)C(C)C)C(N)=O [Compound 47] (H-[Aib][Aib][Aib][Aib]WWAAWPPVV-NH2) | 63 ± 3 (≈ 91.4 µg/mL) | <<50% | > 15 | – | – | – |
| CC(C)CCC[C@@H](C)[C@H]1CC[C@H]2[C@@H]3CC=C4C[C@@H](NCCCCC(=O)NCCC(=O)N[C@@H](CCC(=O)O)C(=O)N[C@@H](CCC(=O)O)C(=O)NCCCCCC(=O)NC(C)(C)C(=O)NC(C)(C)C(=O)NC(C)(C)C(=O)N[C@@H](Cc5c[nH]c6ccccc56)C(=O)N[C@@H](Cc5c[nH]c6ccccc56)C(=O)N[C@@H](C)C(=O)N[C@@H](C)C(=O)N[C@@H](Cc5c[nH]c6ccccc56)C(=O)N5CCC[C@H]5C(=O)N5CCC[C@H]5C(=O)N[C@H](C(=O)N[C@@H](C)C(N)=O)C(C)C)CC[C@]4(C)[C@H]3CC[C@]12C [Compound 14, R = BEEXUUUWWAAWPPVA-CONH2] ({Pentanoyl(5-NH-cholesteryl)-βAla}-EE[Ahx][Aib][Aib][Aib]WWAAWPPVA-NH2) | – | – | – | 1.2 | – | – |
| CC(C)CCC[C@@H](C)[C@H]1CC[C@H]2[C@@H]3CC=C4C[C@@H](NCCCCC(=O)NCCC(=O)N[C@@H](CCC(=O)O)C(=O)N[C@@H](CCC(=O)O)C(=O)NCCCCCC(=O)N[C@@H](CO)C(=O)N[C@@H](CO)C(=O)N[C@@H](C)C(=O)N[C@@H](Cc5c[nH]c6ccccc56)C(=O)N[C@@H](Cc5c[nH]c6ccccc56)C(=O)N[C@@H](CO)C(=O)N[C@@H](Cc5ccc(O)cc5)C(=O)N[C@@H](Cc5c[nH]c6ccccc56)C(=O)N5CCC[C@H]5C(=O)N5CCC[C@H]5C(=O)N[C@H](C(=O)N[C@@H](C)C(N)=O)C(C)C)CC[C@]4(C)[C@H]3CC[C@]12C [Compound 6, R = BEEXSSAWWSYWPPVA-CONH2] ({Pentanoyl(5-NH-cholesteryl)-βAla}-EE[Ahx]SSAWWSYWPPVA-NH2) | – | – | – | 3.5 | – | – |
| Ac-AAAWWAYWPPVA-NH2 [Compound 40] | 41 ± 2 | <<50% | > 15 | – | – | – |
| CC(C)[C@H](NC(=O)[C@H](C)NC(=O)[C@@H]1CCCN1C(=O)[C@@H]1CCCN1C(=O)[C@H](Cc1c[nH]c2ccccc12)NC(=O)[C@H](Cc1ccc(O)cc1)NC(=O)[C@H](C)NC(=O)[C@H](Cc1c[nH]c2ccccc12)NC(=O)[C@H](Cc1c[nH]c2ccccc12)NC(=O)C(C)(C)NC(=O)C(C)(C)NC(=O)C(C)(C)NC(=O)C(C)(C)N)C(N)=O [Compound 51] (H-[Aib][Aib][Aib][Aib]WWAYWPPAV-NH2) | 48 ± 3 (≈ 72.7 µg/mL) | <50% | > 15 | – | – | – |
| CC(C)CCC[C@@H](C)[C@H]1CC[C@H]2[C@@H]3CC=C4C[C@@H](OC(=O)NCCC(=O)NCCC(=O)N[C@@H](CCC(=O)O)C(=O)N[C@@H](CCC(=O)O)C(=O)NCCOCCOCCOCCC(=O)NCCOCCOCCOCCC(=O)NC(C)(C)C(=O)NC(C)(C)C(=O)NC(C)(C)C(=O)NC(C)(C)C(=O)N[C@@H](Cc5c[nH]c6ccccc56)C(=O)N[C@@H](Cc5ccc(O)cc5)C(=O)N[C@@H](C)C(=O)N[C@@H](Cc5c[nH]c6ccccc56)C(=O)N[C@@H](Cc5ccc(O)cc5)C(=O)N[C@@H](C)C(=O)N[C@@H](Cc5c[nH]c6ccccc56)C(=O)N[C@@H](Cc5ccc(O)cc5)C(=O)N5CCC[C@H]5C(=O)N5CCC[C@H]5C(=O)N[C@H](C(=O)N[C@H](C(N)=O)C(C)C)C(C)C)CC[C@]4(C)[C@H]3CC[C@]12C [Compound 84, Ch2-EEOOUUUUWYAWYAWYPPVV-NH2] ({Cholesteryloxycarbonyl-βAla-βAla}-EE[PEG3][PEG3][Aib][Aib][Aib][Aib]WYAWYAWYPPVV-NH2) | 21 ± 1 (≈ 66.4 µg/mL) | – | – | – | – | – |
| CC(C)[C@H](NC(=O)[C@@H]1CCCN1C(=O)[C@@H]1CCCN1C(=O)[C@H](Cc1c[nH]c2ccccc12)NC(=O)[C@H](Cc1ccc(O)cc1)NC(=O)[C@H](C)NC(=O)[C@H](Cc1c[nH]c2ccccc12)NC(=O)[C@H](Cc1c[nH]c2ccccc12)NC(=O)C(C)(C)NC(=O)C(C)(C)NC(=O)C(C)(C)NC(=O)C(C)(C)N)C(=O)N[C@@H](C)C(N)=O [Compound 43] (H-[Aib][Aib][Aib][Aib]WWAYWPPVA-NH2) | 40 ± 2 (≈ 60.6 µg/mL) | 64% | 9 ± 3 | – | 57 ± 7 | EC50 ([2]; read-out: Potency (EC50), Table 1, Jurkat lymphocytes, probe Compound 2 (2.5 μM), 14 hours, 95% confidence interval in neighbouring cell): 10 µM |
| CC(C)[C@H](NC(=O)[C@@H](NC(=O)[C@@H]1CCCN1C(=O)[C@@H]1CCCN1C(=O)[C@H](Cc1ccc(O)cc1)NC(=O)[C@H](Cc1ccc(O)cc1)NC(=O)[C@H](C)NC(=O)[C@H](Cc1ccc(O)cc1)NC(=O)[C@H](Cc1ccc(O)cc1)NC(=O)[C@H](C)NC(=O)[C@H](Cc1ccc(O)cc1)NC(=O)[C@H](Cc1ccc(O)cc1)NC(=O)C(C)(C)NC(=O)C(C)(C)NC(=O)C(C)(C)NC(=O)C(C)(C)N)C(C)C)C(N)=O [Compound 85] (H-[Aib][Aib][Aib][Aib]YYAYYAYYPPVV-NH2) | – | – | 4 ± 1 | – | >125 | – |
| CC(C)[C@H](NC(=O)[C@@H](NC(=O)[C@@H]1CCCN1C(=O)[C@@H]1CCCN1C(=O)[C@H](C)NC(=O)[C@H](Cc1ccc(O)cc1)NC(=O)[C@H](C)NC(=O)[C@H](Cc1c[nH]c2ccccc12)NC(=O)[C@H](Cc1c[nH]c2ccccc12)NC(=O)C(C)(C)NC(=O)C(C)(C)NC(=O)C(C)(C)NC(=O)C(C)(C)N)C(C)C)C(N)=O [Compound 48] (H-[Aib][Aib][Aib][Aib]WWAYAPPVV-NH2) | 86 ± 5 (≈ 123 µg/mL) | <<50% | – | – | <10 | – |
| CC(C)CCC[C@@H](C)[C@H]1CC[C@H]2[C@@H]3CC=C4C[C@@H](NCCCCC(=O)NCCC(=O)N[C@@H](CCC(=O)O)C(=O)N[C@@H](CCC(=O)O)C(=O)NCCCCCC(=O)NCCCCCC(=O)NC(C)(C)C(=O)NC(C)(C)C(=O)NC(C)(C)C(=O)NC(C)(C)C(=O)N[C@@H](Cc5ccccc5)C(=O)N[C@@H](Cc5ccccc5)C(=O)N[C@@H](C)C(=O)N[C@@H](Cc5ccccc5)C(=O)N[C@@H](Cc5ccccc5)C(=O)N5CCC[C@H]5C(=O)N5CCC[C@H]5C(=O)N[C@H](C(=O)N[C@@H](C)C(N)=O)C(C)C)CC[C@]4(C)[C@H]3CC[C@]12C [Compound 22, R = BEEXXUUUUFFAFFPPVA-CONH2] ({Pentanoyl(5-NH-cholesteryl)-βAla}-EE[Ahx][Ahx][Aib][Aib][Aib][Aib]FFAFFPPVA-NH2) | – | – | – | > 10 | – | – |
| CC(C)CCC[C@@H](C)[C@H]1CC[C@H]2[C@@H]3CC=C4C[C@@H](NCCCCC(=O)NCCC(=O)N[C@@H](CCC(=O)O)C(=O)N[C@@H](CCC(=O)O)C(=O)NCCCCCC(=O)NC(C)(C)C(=O)NC(C)(C)C(=O)NC(C)(C)C(=O)N[C@@H](Cc5c[nH]c6ccccc56)C(=O)N[C@@H](Cc5c[nH]c6ccccc56)C(=O)N[C@@H](C)C(=O)N[C@@H](Cc5ccc(O)cc5)C(=O)N[C@@H](Cc5c[nH]c6ccccc56)C(=O)N[C@@H](C)C(=O)N5CCC[C@H]5C(=O)N[C@H](C(=O)N[C@@H](C)C(N)=O)C(C)C)CC[C@]4(C)[C@H]3CC[C@]12C [Compound 16, R = BEEXUUUWWAYWAPVA-CONH2] ({Pentanoyl(5-NH-cholesteryl)-βAla}-EE[Ahx][Aib][Aib][Aib]WWAYWAPVA-NH2) | – | – | – | 1.6 | – | – |
| Ch1-EEOOUUUUYYYYPPVV-NH2 [Compound 86] | – | – | 0.08 ± 0.01 | – | 125 ± 10 | – |
| CC(C)CCC[C@@H](C)[C@H]1CC[C@H]2[C@@H]3CC=C4C[C@@H](NCCCCC(=O)NCCC(=O)N[C@@H](CCC(=O)O)C(=O)N[C@@H](CCC(=O)O)C(=O)NCCCCCC(=O)NC(C)(C)C(=O)NC(C)(C)C(=O)NC(C)(C)C(=O)N[C@@H](Cc5c[nH]c6ccccc56)C(=O)N[C@@H](Cc5c[nH]c6ccccc56)C(=O)N[C@@H](C)C(=O)N[C@@H](Cc5ccc(O)cc5)C(=O)N[C@@H](Cc5c[nH]c6ccccc56)C(=O)N5CCC[C@H]5C(=O)N[C@@H](C)C(=O)N[C@H](C(=O)N[C@@H](C)C(N)=O)C(C)C)CC[C@]4(C)[C@H]3CC[C@]12C [Compound 17, R = BEEXUUUWWAYWPAVA-CONH2] ({Pentanoyl(5-NH-cholesteryl)-βAla}-EE[Ahx][Aib][Aib][Aib]WWAYWPAVA-NH2) | – | – | – | 2.1 | – | – |
